According to patent publication US9192653B2, “Protecting and repairing cartilage and musculoskeletal soft tissues” (University of Rochester, priority 2008, dated 2015):

How the values were obtained:
chick chondrocytes = test: Continuous 48 hr exposure of chick chondrocytes in culture; assay type: cell-based; settings: for smurf2 expression: 48 hr chronic, continuous exposure, chick chondrocytes
Description: FIG. 3C is a histogram showing levels of Smurf2 mRNA relative to control in chick sternal chondrocytes cultured with TGFβ, BMP-2, PTHrP, or dibutyryl cyclic adenosine monophosphate (dbcAMP) following a chronic, 48 hour exposure.
The Western blots show pSmad3 and pSmad2 levels in chick sternal chondrocytes cultured in the presence or absence of TGFβ, PTHrP and/or a Smurf2 RNAi (Sf2 RNAi) for 48 hours.
Without meaning to be limited by theory, this may have been due to down-regulation of TGF-β signaling by smurf2, allowing BMP signals to drive hypertrophy.

[1] = test system: white zone meniscal tears; test: Rabbit white zone meniscal tear, treatment after surgery; assay type: in vivo; settings: treated for 4 weeks after surgery, versus saline
Description: FIGS. 12A and 12B show daily treatment with teriparatide for 4 weeks following meniscal surgery results in preliminary meniscal healing. […] Rabbits underwent surgery to produce white zone meniscal tears. The rabbits were treated with either saline (FIG. 12A) or teriparatide (FIG. 12B) after surgery for 4 weeks.

articular cartilage = test: Immediate treatment after meniscus/ligament injury (osteoarthritis model); assay type: in vivo, mice; settings: for proteoglycan in the articular cartilage (Alcian Blue staining intensity): daily injection for 4 weeks starting immediately after surgery; for cartilage loss (histomorphometric joint cartilage area): daily injection for 12 weeks starting immediately after surgery
Description: Treatment with teriparatide or PTH reduces the amount of cartilage loss as compared to treatment with saline. Mice exposed to sham surgery or meniscus/ligament injury, a model for osteoarthritis, were treated, starting immediately after surgery, with saline, teriparatide, or PTH for 4 weeks. […] Mice exposed to sham surgery or meniscus/ligament injury were treated, starting immediately after surgery, with saline, teriparatide, or PTH for 12 weeks.

cartilage = test: Delayed treatment of osteoarthritic mice 8 weeks after joint surgery; assay type: in vivo; settings: daily injections for 4 weeks after 8 week delay post surgery
Description: Delayed treatment with teriparatide or PTH reduces the amount of cartilage loss as compared to treatment with saline. Mice were allowed to develop osteoarthritis for 8 weeks following joint surgery, as described above. After 8 weeks, the mice were treated for 4 weeks with daily injections of teriparatide or PTH, a delayed treatment regimen.

[2] = test system: articular cartilage in mice; test: Murine knee injury model (severe injury), daily injection, Alcian Blue histology; assay type: in vivo
Description: Mice were anesthetized and an arthrotomy of the knee was performed. The medial collateral ligament was surgically transected, and the anterior horn of the medial meniscus was surgically removed to create a mild knee injury. For the severe injury group, the anterior cruciate ligament was also transected, causing severe joint instability in combination with the mild meniscal and medial collateral ligament injuries. The knee was surgically closed and animals were allowed free movement subsequently. One group with the severe combined injuries, as the most difficult case for cartilage protection, was treated daily with injections of teriparatide. After sacrifice at appropriate time points, the knee joints were removed, decalcified, embedded in paraffin, and 4-micron thick sections were stained with Alcian Blue to produce photomicrographs as shown in FIG. 4.

Rabbit meniscal cells = test: Cultured rabbit meniscal cells, mRNA expression; assay type: cell-based
Description: Rabbit meniscal cells were isolated from rabbit menisci and cultured. Cultured meniscal cells were treated with PTH for 1 or 3 days.

| Molecule | smurf2 expression (chick chondrocytes) | meniscal healing (defect, cellularity, proteoglycan content) [1] | proteoglycan in the articular cartilage (Alcian Blue staining intensity) (articular cartilage) | cartilage loss (histomorphometric joint cartilage area) (articular cartilage) | cartilage loss and regeneration versus saline control (cartilage) | development of cartilage degeneration and osteoarthritis ([2]; severe injury (ACL and MCL transection plus medial menisectomy), 4, 8, 12 weeks) | cellular repair activities and hypertrophy or maturational changes ([2]; severe knee injury) | pSmad2 and pSmad3 levels (Western blot) (chick chondrocytes; chick sternal chondrocytes, 48 hours, reversed by Smurf2 siRNA) | cyclin D1 mRNA (Rabbit meniscal cells; after 3 days of treatment) | type I collagen mRNA (Rabbit meniscal cells; treated for 1 or 3 days) |
| --- | --- | --- | --- | --- | --- | --- | --- | --- | --- | --- |
| CCCC(=O)Nc1ncnc2c1ncn2[C@@H]1O[C@@H]2COP(=O)(O)O[C@H]2[C@H]1OC(=O)CCC [dbcAMP, dibutyryl cyclic adenosine monophosphate] | stimulated smurf2 expression | – | – | – | – | – | – | – | – | – |
| CC[C@H](C)[C@H](NC(=O)[C@H](CCC(=O)O)NC(=O)[C@H](CO)NC(=O)[C@@H](NC(=O)[C@@H](N)CO)C(C)C)C(=O)N[C@@H](CCC(N)=O)C(=O)N[C@@H](CC(C)C)C(=O)N[C@@H](CCSC)C(=O)N[C@@H](Cc1cnc[nH]1)C(=O)N[C@@H](CC(N)=O)C(=O)N[C@@H](CC(C)C)C(=O)NCC(=O)N[C@@H](CCCCN)C(=O)N[C@@H](Cc1cnc[nH]1)C(=O)N[C@@H](CC(C)C)C(=O)N[C@@H](CC(N)=O)C(=O)N[C@@H](CO)C(=O)N[C@@H](CCSC)C(=O)N[C@@H](CCC(=O)O)C(=O)N[C@@H](CCCN=C(N)N)C(=O)N[C@H](C(=O)N[C@@H](CCC(=O)O)C(=O)N[C@@H](Cc1c[nH]c2ccccc12)C(=O)N[C@@H](CC(C)C)C(=O)N[C@@H](CCCN=C(N)N)C(=O)N[C@@H](CCCCN)C(=O)N[C@@H](CCCCN)C(=O)N[C@@H](CC(C)C)C(=O)N[C@@H](CCC(N)=O)C(=O)N[C@@H](CC(=O)O)C(=O)N[C@H](C(=O)N[C@@H](Cc1cnc[nH]1)C(=O)N[C@@H](CC(N)=O)C(=O)N[C@@H](Cc1ccccc1)C(=O)O)C(C)C)C(C)C [teriparatide] | – | narrowing of the defect with increased cellularlity and proteoglycan content | upregulation of proteoglycan | reduction in cartilage loss | reduction in the loss of cartilage and regeneration of lost cartilage | dramatically retards the development of cartilage degeneration and osteoarthritis | stimulated cellular repair activities with suppression of hypertrophy or maturational changes | – | – | – |
| parathyroid hormone-related peptide [PTHrP] | stimulated smurf2 expression | – | – | – | – | – | – | reduction of pSmad2 and pSmad3 | – | – |
| parathyroid hormone (protein, listed as Homo sapiens, Parathyroid Hormone, Parathyroid hormone, ligand of the PTH/PTHrP receptor (PTHR1)) MIPAKDMAKVMIVMLAICFLTKSDGKSVKKRSVSEIQLMHNLGKHLNSMERVEWLRKKLQDVHNFVALGAPLAPRDAGSQRPRKKEDNVLVESHEKSLGEADKADVNVLTKAKSQ | – | – | upregulation of proteoglycan | reduction in cartilage loss | reduction in the loss of cartilage and regeneration of lost cartilage | – | – | – | upregulation of mRNA for cyclin D1 | upregulation of mRNA for type I collagen |
